Values quoted from earlier work in US9418186B2, “Assessment of solute partitioning in crude oils” (EXXONMOBIL RESEARCH AND ENGINEERING COMPANY, priority 2012, dated 2016).
Several values for one entry are separate records, joined by “and”; a condition that tells them apart may be missing. Equal values may be shown once. Read-outs that look alike come from different tables or passages of the source.

Key:
[1] = North Sea crude oil / water
[2] = not given; remark: listed apart in the source
[3] = chloroform / water
[4] = Miller (North Sea) crude oil / water

Structure (SMILES)	experimental partition coefficient [1]	experimental value for the log of the partition coefficient [1]	literature value for the partition coefficient in octanol-water	log K in octanol-water (literature)	solubility in water [2]	experimental partition coefficient [3]	experimental value for the log of the partition coefficient [3]	experimental partition coefficient [4]	experimental value for the log of the partition coefficient [4]
S [H2S]	4.09	0.612	27.5	1.44					
O=C1CCCCCN1 [caprolactam]					40353 gmol/m^3	0.74	−0.131		
Oc1ccccc1 [phenol]			28.8	1.45		0.74	−0.13	1.72	0.238 and 0.24
